Results taken from publication PMC4482062 (Nucleic Acids Research, 2015).
“And” between values parts separate entries of the source, which are not always exact repeats. Equal values may be shown once.

What was measured:
[1] = molecular target: T1, CmoB Y200A mutant (Escherichia coli, UniProt P76291, Y200A); assay: Isothermal titration calorimetry, Y200A mutant CmoB; format: binding
T1 construct: vector LIC-pET30a) (cleaved yes); made in house; host or cells: Escherichia coli BL21 (DE3)
Method: (§1) CmoB was extensively dialyzed for 24 h against binding buffer (20-mM HEPES, pH 7.5) using a dialysis cassette with 10-kDa MWCO (Pierce). Lyophilized Cx-SAM was dissolved in the binding buffer at a final concentration of 1.3 mM. SAM was purchased from Sigma and dissolved in binding buffer at a final concentration of 10 mM. Prior to use, all titration samples were centrifuged for 20 min at 4°C. Isothermal titration calorimetry (ITC) experiments were performed at 15°C using an auto-ITC200 (MicroCal, LLC, Northhampton, MA, USA) in which the reaction cell (202.8 μl) containing CmoB (50 μM and 370 μM for Cx-SAM and SAM, respectively) was titrated with 40 × 1-μl injections of 1.3-mM Cx-SAM or 6.7-mM SAM with an equilibration time of 180 s. Raw injection traces were integrated over time, normalized per mol of ligand injected and corrected for the heat of dilution obtained from the plateau of a titration curve. Titration data were analyzed using a single-site model in Origin (version X) and Igor Pro 5/6. […] Based on the chemical synthesis, the Cx-SAM utilized in the binding assay is a racemic mixture, of which only the S-isomer is capable of acting as a substrate/ligand for CmoB. Therefore, the stoichiometry was fixed at 1:1 and the activity of the ligand was introduced as a fitting parameter for Cx-SAM.

[2] = molecular target: T2, wild-type CmoB (Escherichia coli, UniProt P76291); assay: Isothermal titration calorimetry, wild-type CmoB; format: binding
T2 construct: vector LIC-pET30a) (cleaved yes); made in house; host or cells: Escherichia coli BL21 (DE3)
Method: as §1

[3] = molecular target: T3, CmoB R315A mutant (Escherichia coli, UniProt P76291, R315A); assay: Isothermal titration calorimetry, R315A mutant CmoB; format: binding
T3 construct: vector LIC-pET30a) (cleaved yes); made in house; host or cells: Escherichia coli BL21 (DE3)
T3 sequence (P76291 whole entry R315A): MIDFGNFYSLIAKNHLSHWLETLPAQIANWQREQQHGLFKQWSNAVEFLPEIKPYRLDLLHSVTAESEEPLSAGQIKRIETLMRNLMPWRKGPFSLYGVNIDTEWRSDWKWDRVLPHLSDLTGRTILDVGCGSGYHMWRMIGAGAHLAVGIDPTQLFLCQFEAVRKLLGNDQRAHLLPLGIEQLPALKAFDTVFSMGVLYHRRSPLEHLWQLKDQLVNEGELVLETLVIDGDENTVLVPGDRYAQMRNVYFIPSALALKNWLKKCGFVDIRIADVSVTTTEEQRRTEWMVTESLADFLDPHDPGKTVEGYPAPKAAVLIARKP
Method: as §1

[4] = molecular target: T2, wild-type CmoB; assay: In vitro LC-MS-based alkyl transfer assay, wild-type CmoB; format: biochemical
Method: The assay solution for SAM-dependent mo5U formation contained 10-mM Tris-HCl (pH 8.0), 4-mM MgCl2, 0.2-mM SAM and 20–25 μg (∼20 μM) of total tRNA prepared from cmoB-mutant E. coli cells in 50 μl. Reaction conditions for Cx-SAM-dependent cmo5U formation assay were identical, with the exception that10-μM Cx-SAM was used in place of SAM. Assays were initiated by addition of 0.1–2-μM CmoB to the above mixtures and subsequently incubated at the room temperature. The reaction was terminated by the addition of 0.1-mg/ml P1 nuclease, followed by incubation at 60°C for at least 1 h. […] Hydrolyzed nucleotides were directly applied to HPLC without further processing for LC-MS analysis as described above.

[5] = molecular target: T4, CmoB K91A mutant (Escherichia coli, UniProt P76291, K91A); assay: Isothermal titration calorimetry, K91A mutant CmoB; format: binding; conditions: K91A
T4 construct: vector LIC-pET30a) (cleaved yes); made in house; host or cells: Escherichia coli BL21 (DE3)
T4 sequence (P76291 whole entry K91A): as the sequence (P76291 whole entry R315A) above, with K91A, A315R counted along it
Method: as §1
The titration curve was analyzed using macroscopic binding constants and enthalpies describing binding of n-molecules of Cx-SAM to tetrameric mutant CmoB. Initially, the titration curve was analyzed with all possible values of n (=1~4). […] Therefore, the titration curve was analyzed using three sets of binding constants and enthalpies (Supplementary Table 2). The fitted values of the macroscopic binding constants were compared to those expected for a case of non-cooperative binding. For both cooperative and non-cooperative binding, K1 is given by 4Ksite where 4 accounts for the number of ligand binding sites in teterameric CmoB (i.e., statistical factor) and Ksite describes the “intrinsic” affinity of each site. Then, Ksite=3.6x10^4 M^-1. The fitted value of K2 is ~ 8.4-fold higher than that calculated for the case of non-cooperative binding (6Ksite^2=7.7x10^9 M^-2), indicating positive cooperativity involved in binding of the second Cx-SAM. Since the population of K91A with three Cx-SAMs bound is negligible, binding of the third Cx-SAM is deduced to be negatively cooperative.
A possible molecular explanation for such heterogeneous cooperativity involved in the interaction between K91A and Cx-SAM is the presence of (at least) two different types of interface between the subunits in tetrameric K91A which is consistent with the structural model of the CmoB tetramer. In this model (Supplementary Figure 9), the four ligand binding sites are initially equivalent, but binding of the first ligand to any of these four sites differentially affects (increases and decreases) the affinities of the neighboring sites for the second ligand through the different subunit interfaces. This model is a variation of the classical “square” model used in the analysis of the interaction between hemoglobin and oxygen(2) and provides a molecular description of the fitted macroscopic binding constants in terms of the intrinsic affinity (Ksite) and two types of cooperativity (ω+ and ω-): K1=4Ksite; K2=2Ksite^2(1+ω++ω-); K4=Ksite^4(ω+ω-)^2. Then, Ksite=3.6x10^4 M^-1, ω+=23.8, and ω-=0.4. The value of ω is equivalent to a fold-change in the Cx-SAM affinity of a binding site in tetrameric K91A when its neighboring site is already occupied by Cx-SAM.
^aIn this model, the interaction is described by a set of binding events where n-molecules of Cx-SAM bind tetrameric CmoB (K91A) with the corresponding binding constants (Kn) and enthalpies (∆Hn°). Initially, the titration curve was analyzed by this model including all possible values of n (=1~4). […] Therefore, the titration curve was analyzed using three sets of binding constants and enthalpies.

[6] = molecular target: the molecule itself; assay: AUC; sedimentation velocity, g(s*) distribution fitted to a single-species model; with or without Cx-SAM or SAM

T1 sequence (P76291 whole entry Y200A): as the sequence (P76291 whole entry R315A) above, with Y200A, A315R counted along it

Which results are given for C[S+](CC[C@H](N)C(=O)[O-])C[C@H]1O[C@@H](n2cnc3c(N)ncnc32)[C@H](O)[C@@H]1O (some centres unmarked) [SAM, reference compound]?
Kd [1]: > 119 µM; K (binding constant) ([1]; ITC, 15°C, single-site model, Y200A): N.D.^e (< 8.4 × 10^3) M^−1; ΔG° ([1]; ΔG° = −RT lnK, Y200A): >-21.3 kJ/mol; ΔH° ([2]; ITC): -2.5 ± 0.42 kJ/mol; K (binding constant) ([2]; ITC, 15°C, single-site model): 4.8 ± 2.0 × 10^3 M^−1 and 4.8 ± 2.0 x 10^3 M^−1; TΔS° ([2]; ITC, text): 17.7 ± 1.13 kJ/mol; ΔG° ([2]; ITC, text): -20.3 ± 1 kJ/mol; ΔH° ([2]; ITC, text): -2.59 ± 0.502 kJ/mol; ΔS° ([2]; ITC, text): 14.7 ± 0.9 cal·mol^−1·deg^−1; Kd ([2]; ITC): 210 ± 90 µM; Kd ([2]; ITC, 15°C): 200 µM and 208 µM; ΔG° ([2]; ΔG° = −RT lnK): -20.5 ± 0.84 kJ/mol; ΔS° ([2]; ΔS° = (ΔH°−ΔG°)/T): 14.7 ± 0.9 cal/mol/deg; Kd [3]: 140 ± 7.3 µM; K (binding constant) ([3]; ITC, 15°C, single-site model, R315A): 7.1 ± 0.4 x 10^3 M^−1; ΔH° ([3]; ITC, R315A): -46.4 ± 0.84 kJ/mol; ΔG° ([3]; ΔG° = −RT lnK, R315A): -21.3 ± 0.42 kJ/mol; ΔS° ([3]; ΔS° = (ΔH°−ΔG°)/T, R315A): −21.0 ± 0.8 cal/mol/deg; Time to observed mo5U formation ([4]; 2-μM wild-type CmoB, 0.2-mM SAM as alkyl donor): 5 h; Time to detected trace mo5U with both donors present ([4]; 10-μM Cx-SAM and 2-mM SAM): 2 h; K (binding constant) ([5]; ITC, 15°C, single-site model): 9.1 ± 0.2 × 10^4 M^−1 and 9.1 ± 0.2 x 10^4 M^−1; ΔH° ([5]; ITC): -26.8 ± 0.42 kJ/mol; Kd ([5]; Kd, ITC, 15°C): 11 ± 0.2 µM; ΔG° ([5]; ΔG° = −RT lnK): -27.2 ± 0.42 kJ/mol; ΔS° ([5]; ΔS° = (ΔH°−ΔG°)/T): 0.4 ± 0.1 cal/mol/deg

B1: CmoB carboxymethyl transferase (enzyme, Escherichia coli (BL21 genomic DNA))
chain: MIDFGNFYSLIAKNHLSHWLETLPAQIANWQREQQHGLFKQWSNAVEFLPEIKPYRLDLLHSVTAESEEPLSAGQIKRIETLMRNLMPWRKGPFSLYGVNIDTEWRSDWKWDRVLPHLSDLTGRTILDVGCGSGYHMWRMIGAGAHLAVGIDPTQLFLCQFEAVRKLLGNDQRAHLLPLGIEQLPALKAFDTVFSMGVLYHRRSPLEHLWQLKDQLVNEGELVLETLVIDGDENTVLVPGDRYAQMRNVYFIPSALALKNWLKKCGFVDIRIADVSVTTTEEQRRTEWMVTESLADFLDPHDPGKTVEGYPAPKRAVLIARKP
notes: CmoB of Escherichia coli, cmoB gene amplified from genomic DNA of E. coli BL21 and cloned into LIC-pET30a; calculated monomer mass 37.01 kD; 319-323 C-alphas aligned per protomer in the structures; A selenomethionine-substituted form (made in E. coli B834, purified the same way) gave the experimental phases; also called wild-type CmoB; source: E. coli BL21 (DE3), purified (Ni-agarose, thrombin …)
Which “stoichiometry N” value [6] does the source give for B1 here?
The value was 4.
